# Measurements from US7608611B2, “Hsp90 inhibitors, methods of making and uses therefor” (The Regents of the University of Colorado, priority 2005, dated 2009).
# Where two headings read alike, the source gives them in different places.
# What was measured:
# [1] = clinical trials, background statement; cited from earlier work
# [2] = system: MDA468/NQ16 cells; settings: MTT
# Method: (§2) Cells were seeded at 2×10^3 cells per well (96 well plate) in complete medium overnight.
# [3] = system: MDA468/NQ16 cell sonicates; settings: NADH or NADPH
# Method: The human breast cancer cell line MDA468 and the NQO1 stably transfected cell line MDA468/NQ16 (Clin. Cancer Res. 2004; 10:3147-55) were grown in RPMI-1640 containing 10% (v/v) fetal bovine serum and 1% (v/v) penicillin, streptomycin and glutamine. […] Protein concentrations were determined by the method of Lowry. […] The parental MDA468 cell lines is NQO1 null (<10 nmoles DCPIP/min/mg) due to homozygous expression of the NQO1*2 polymorphism. The stable transfection of the MDA468 cell line with human NQO1 generated the MDA468/NQ16 cell line, which has high NQO1 activity (>1,800 nmoles DCPIP/min/mg).
# [4] = system: MDA468 cells; assay: Metabolism of 17-AAG in intact MDA468 cells, HPLC; type: cell-based, human; settings: 5 μM 17-AAG, 4 hr
# [5] = target: yeast Hsp90 (Saccharomyces cerevisiae, UniProt P02829); type: biochemical; settings: 17-AAG, 3 hr; for inhibition of yeast Hsp90 ATPase activity in the presence of NQO1 (17-AAGH2 formed): NADH and rhNQO1
# Method: Reactions with yeast Hsp90 (top panel) were analyzed after 3 hr, while reactions with human Hsp90 (bottom panel) were analyzed after 12 hr. Phosphate concentrations were measured using the malachite green assay.
# Reactions (25 μl) were started by the addition of 1 mM ATP and allowed to proceed at 37° C. for the indicated times. Reactions were then diluted with 225 μl of 100 mM Tris-HCl, pH 7.4, containing 20 mM KCl and 6 mM MgCl2 mixed thoroughly, and 80 μl was transferred to each well (96 well plate) followed by 20 μl of malachite green reagent. After 10 min 83 mM trisodium citrate was added to stabilize the color and plates were read at 650 nm.
# [6] = target: T1, NQO1 (Homo sapiens, UniProt P15559); assay: Reduction of 17-AAG by rhNQO1 and NADH, HPLC analysis; type: in vitro ADME
# Method: HPLC conditions: Buffer A, 50 mM ammonium acetate, pH 4 containing 10 μM D(−) penicillamine; buffer B, acetonitrile (100%). Both buffers were continuously bubbled with N2. Gradient, 20% B to 85% B over 20 min, then 85% for 4 min (flow rate of 1 ml/min). The sample injection volume was 50 μl. Liquid Chromatography-Mass Spectrometry was performed using positive ion electrospray ionization (ESI) and the mass spectra were obtained with a PE Sciex API-3000 triple quadrupole mass spectrometer (Foster City, Calif.) with a turbo ionspray source interfaced to a PE Sciex 200 HPLC system. Samples were chromatographed on a Luna C18 reverse-phase column (5 μm, 50×2 mm (Phenomenex) using a gradient elution consisting of a 2 min initial hold at 20% B followed by an increase to 80% B over 20 min at a flow rate of 0.2 ml/min and a sample injection volume of 20 μl. Buffer A, 10 mM ammonium acetate containing 0.1% (v/v) acetic acid, pH 4.4: buffer B, 10 mM ammonium acetate in acetonitrile containing 0.1% (v/v) acetic acid. The mass spectrometer settings were: turbo ionspray temperature of 250° C., spray needle voltage at 4500 V, declustering potential (DP) at 35 V and focus plate (FP) at 125 V. Mass spectra were continuously recorded from 150 to 1000 amu every 3 s during the chromatographic analysis.
# Inhibition of rhNQO1 by ES936 was >98%. […]
# [7] = system: MDA468/NQ16 cells
# [8] = system: MDA468 cells; settings: read-out: IC50 growth inhibition; parental MDA468 cells, 4 hr exposure then 72 hr drug-free, MTT
# Method: as §2
# [9] = system: MDA468 cell sonicates; assay: Reduction of 17-AAG by MDA468 cell sonicates, HPLC; type: in vitro ADME, human
# [10] = system: Hsp90; assay: Immunoblot of Hsp90 inhibition markers (Hsp70, Raf-1, pMEK, pERK) in MDA468/NQ16 versus MDA468 cells; type: cell-based, human; settings: MDA468/NQ16 compared to MDA468 cells
# Method: Results were confirmed in duplicate experiments. […] Results were confirmed in duplicate experiments.
# To measure Hsp90 inhibition in these cells we analyzed Hsp70 induction and Raf-1 degradation as markers of Hsp90 inhibition (FIG. 5). […] Following drug treatment cells were washed in PBS then lysed by the addition of RIPA buffer (50 mM Tris-HCl, pH 7.4, 0.5% (v/v) NP40) containing 1 mini-protease tablet (protease inhibitor cocktail, Roche Indianapolis Ind.) and phosphatase inhibitors (30 mM NaF, 40 mM β-glycerol phosphate, 20 mM sodium pyrophosphate, 1 mM orthovanadate, 1 mM EGTA). Lysates were probe sonicated (2s) on ice then centrifuged to remove cellular debris. Protein concentrations were determined on supernatant. […] Membranes were blocked in 10 mM Tris-HCl, pH 8.0, 150 mM NaCl, 0.2% Tween-20 and 5% non-fat milk for a minimum of 1 hr at room temperature. Anti-Hsp70, anti-Raf-1, anti-MEK and anti-ERK antibodies were added for 1 hr at room temperature. Anti-phospho MEK and ERK antibodies were added overnight at 4° C. All primary antibodies were diluted 1:1,000 except actin (1:5,000). Horseradish peroxidase-labeled secondary antibodies (Jackson ImmunoResearch Labs, West Grove Pa.) were diluted 1:5000 and added for 30 min. Proteins were visualized using enhanced chemilumenscence detection.
# [11] = Stability (autoxidation) of 17-AAGH2 in solution by HPLC; type: physicochemical
# Source text: Results are mean, standard deviation, n=3.
# During analysis HPLC buffers were continuously gassed with N2 and a copper chelator was included. […] In these studies the autoxidation of 17-AAGH2 was followed over time in an aerobic reaction.
# [12] = target: T1, NQO1; assay: Inhibition of NQO1 activity by ES936 in MDA468/NQ16 cells; type: cell-based; design: expressed in transfected cells; host or cells: MDA468/NQ16 (human breast cancer MDA468 stably transfected with human NQO1)
# Source text: (§1) Inhibition of rhNQO1 by ES936 was >98%.
# [13] = target: T1, NQO1; assay: Inhibition of rhNQO1 by ES936; type: biochemical
# Source text: as §1
# [14] = MDA468/NQ16 cells, 5 μM 17-AAG, 4 hr
# yeast Hsp90, sequence (P02829 whole entry): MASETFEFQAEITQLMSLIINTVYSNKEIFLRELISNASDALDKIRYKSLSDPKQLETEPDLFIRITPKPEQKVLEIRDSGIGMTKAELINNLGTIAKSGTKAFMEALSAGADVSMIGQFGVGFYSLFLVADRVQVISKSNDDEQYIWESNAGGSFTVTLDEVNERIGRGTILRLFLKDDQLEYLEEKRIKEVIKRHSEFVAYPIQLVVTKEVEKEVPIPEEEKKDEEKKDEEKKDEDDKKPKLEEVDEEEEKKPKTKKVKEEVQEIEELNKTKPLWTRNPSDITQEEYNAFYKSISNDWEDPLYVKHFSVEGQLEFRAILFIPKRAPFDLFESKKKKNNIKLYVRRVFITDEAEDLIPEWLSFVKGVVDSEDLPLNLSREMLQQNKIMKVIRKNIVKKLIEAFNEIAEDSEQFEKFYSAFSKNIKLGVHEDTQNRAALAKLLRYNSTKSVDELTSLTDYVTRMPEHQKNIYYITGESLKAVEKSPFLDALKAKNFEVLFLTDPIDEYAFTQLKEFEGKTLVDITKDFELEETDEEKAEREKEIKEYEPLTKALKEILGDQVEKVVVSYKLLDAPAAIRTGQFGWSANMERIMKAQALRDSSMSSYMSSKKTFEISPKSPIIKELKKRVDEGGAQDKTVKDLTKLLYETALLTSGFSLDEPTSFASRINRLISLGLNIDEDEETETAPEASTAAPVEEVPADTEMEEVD
# T1 sequence (P15559 whole entry): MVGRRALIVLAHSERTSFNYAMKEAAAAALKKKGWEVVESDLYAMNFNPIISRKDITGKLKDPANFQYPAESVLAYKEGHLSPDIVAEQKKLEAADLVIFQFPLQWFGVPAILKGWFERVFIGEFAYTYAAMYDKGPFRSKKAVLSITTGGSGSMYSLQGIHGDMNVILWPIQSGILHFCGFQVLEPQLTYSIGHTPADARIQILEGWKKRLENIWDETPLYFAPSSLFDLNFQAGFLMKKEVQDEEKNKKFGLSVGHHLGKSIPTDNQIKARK
structure (smiles),measurement,setting,value
"C=CCNC1=C2C[C@@H](C)C[C@H](OC)[C@H](O)[C@@H](C)/C=C(\C)[C@H](OC(N)=O)[C@@H](OC)/C=C\C=C(/C)C(=O)NC(=CC1=O)C2=O [17-AAG, 17-demethoxy-17-(2-propenylamino)-geldanamycin]",hepatotoxicity / liver toxicity,[1],do not induce liver toxicity
same,IC50,"[2]; read-out: IC50 growth inhibition after pretreatment with ES936, pretreatment with 100 nM ES936 for 30 min, 4 hr exposure then 72 hr",7.67 ± 1.36 µM
same,IC50,"[2]; read-out: IC50 growth inhibition, MDA468/NQ16 cells, 4 hr exposure then 72 hr drug-free",0.86 ± 0.16 µM
same,generation of 17-AAGH2 by cell sonicates,[3],readily generated 17-AAGH2
same,Cell viability (trypan blue exclusion assay),[4],> 90%
same,formation of 17-AAGH2 in intact cells,[4],No 17-AAGH2 could be detected
same,inhibition of yeast Hsp90 ATPase activity in the presence of NQO1 (17-AAGH2 formed),[5],substantial decrease in ATPase activity
same,inhibition of yeast Hsp90 ATPase activity in the absence of NQO1,[5]; NADH,No inhibition
same,17-AAG detected in the form of the hydroquinone after reduction by NQO1,[6],90%
same,Cell viability (trypan blue exclusion assay),[7]; [14],> 90%
same,formation of 17-AAGH2 in intact cells,[7]; [14],17-AAGH2 could be generated
same,accumulation of total drug (quinone plus hydroquinone) in cells,[7]; MDA468/NQ16 compared to ES936-treated or parental MDA468 cells,accumulated more total drug
same,IC50,[8],10.1 ± 1.07 µM
same,generation of 17-AAGH2 by cell sonicates,[9],No 17-AAGH2 could be detected
same,Hsp70 induction,"[10]; 17-AAG 0.5-1 μM, 8 hr",greater Hsp70 induction
same,Raf-1 degradation,"[10]; 17-AAG 0.5-1 μM, 8 hr",increased Raf-1 degradation
same,MEK and ERK phosphorylation,"[10]; serum starved 24 hr, 17-AAG 8 hr",decreased levels of both MEK and ERK phosphorylation
"C=CCNc1c(O)cc2c(O)c1CC(C)CC(OC)C(O)C(C)C=C(C)C(OC(N)=O)C(OC)C=CC=C(C)C(=O)N2 (stereo not shown) [17-AAGH2, 17-Demethoxy-18,21-dihydroxy-17-(2-propenylamino)-geldanamycin]",inhibition of yeast Hsp90 ATPase activity in the presence of NQO1 (17-AAGH2 formed),[5],the active Hsp90 inhibitor
same,autoxidation of the hydroquinone back to the quinone over time,"[11]; aerobic, 50 mM potassium phosphate buffer pH 7.4, 27° C.",slow rate of autoxidation back to 17-AAG over a period of hours
same,effect of copper on 17-AAGH2 oxidation,[11]; inclusion of copper (CuSO4),could facilitate 17-AAGH2 oxidation
"CO[C@H]1/C=C\C=C(/C)C(=O)NC2=CC(=O)C(NCCN(C)C)=C(C[C@@H](C)C[C@H](OC)[C@H](O)[C@@H](C)/C=C(\C)[C@@H]1OC(N)=O)C2=O [17-DMAG, 17-demethoxy-17-[[2-(dimethylamino)ethyl]amino]-geldanamycin]",hepatotoxicity / liver toxicity,[1],do not induce liver toxicity
"COC1=CC(=O)c2c(c(COc3ccc([N+](=O)[O-])cc3)c(C)n2C)C1=O [ES936, 5-methoxy-1,2-dimethyl-3-[(4-nitrophenoxy)methyl]indole-4,7-dione]",inhibition at 0.1 µM,"[12]; single dose 100 nM ES936, after 4 hr, MDA468/NQ16 cells",> 96%
same,toxicity of ES936 to cells,[12]; single dose of 100 nM,nontoxic
same,Inhibition of rhNQO1,[13],> 98%
"COC1=C2C[C@@H](C)C[C@H](OC)[C@H](O)[C@@H](C)/C=C(\C)[C@H](OC(N)=O)[C@@H](OC)/C=C\C=C(/C)C(=O)NC(=CC1=O)C2=O [GDM, geldanamycin]",hepatotoxicity / liver toxicity,[1],unacceptable hepatotoxicity
